Results on 3 molecules are retold here after US5817776A, “Amino acid analogs for tumor imaging” (priority 1996, dated 1998).

SMILES strings stand for the structures.

For data set [1], the system named is metastatic lesions in the brain. The note with it: cited from earlier work.
The next data set relates to several tumor types. The following applies: labeled with carbon-14 or carbon-11, animals, Washburn et al. 1979; cited from earlier work.
Data set [2] has as its system N-methyl-D-aspartic acid (NMDA) receptor, strychnine-insensitive glycine recognition site. The note with it: cited from earlier work.
A further data set has as its system normal tissue. The following applies: in vivo; cited from earlier work.
A short description of a further data set: in vivo. The following applies: rat, in vivo, iv, Mean % Injected Dose/Gram. The procedure:
(§1) In vivo distribution of a compound of the invention, [^18 F]-1-amino-3-fluoro-cyclobutane-1-carboxylic acid (FACBC) was measured in rats having an implanted gliosarcoma. Accumulation in various tissue was measured at 5 min and 60 min post-administration.
(§2) Distribution of Radioactivity in Tissues of Unfasted Male
(§3) Fisher Rats following Intravenous Administration of [^18 F]FACBC

The next data set concerns implanted gliosarcoma. In words: in vivo. The note with it: for Bone, Mean % Injected Dose/Gram: unfasted male fisher rats, average of 4 rats. The procedure:
as §1, §2, §3

The test system of data set [3] is human astrocyte tumor cells. Briefly: Binding to human astrocyte tumor cells in a human patient. The format is in vivo.
Setting [4] is: 60 min, intravenous, male fisher rats with implanted gliosarcoma.

In the case of `NC1(C(=O)O)CCC1` [ACBC, 1-aminocyclobutanecarboxylic acid], the “substrate for protein synthesis in metastatic lesions; normal brain uptake (in words)” value in data set [1] is on record as “selective substrate for protein synthesis in metastatic lesions in the brain with little observable uptake in normal brain tissue”. For the same molecule, in the data set with several tumor types, the “incorporation by tumors (in words)” value was “incorporated preferentially by several tumor types in animals”. The “NMDA receptor ligand and antagonist activity (in words)” value in data set [2] was “selective and potent ligand and antagonist”.

Consider `CSCC[C@H](N)C(=O)O` [[^11 C] methionine, methionine], for which the “uptake in normal tissue (in words)” value with normal tissue is on record as “relatively high uptake in normal tissue”.

By tissue uptake is commonly meant the percentage of the injected dose found per gram of tissue. Low readings indicate low uptake, high ones high uptake. As to `NC1(C(=O)O)CC([18F])C1` (stereo not shown) [[^18 F]FACBC, [^18 F]-1-amino-3-fluorocyclobutane-1-carboxylic acid], the tissue uptake at 5 min in the data set “in vivo” (Blood, 5 min, unfasted male fisher rats, average of 4 rats) stood at 0.58 %ID/g; in “in vivo” (Bone, 5 min, unfasted male fisher rats, average of 4 rats), 0.52 %ID/g; in the data set “in vivo” (Brain (B)) it was 0.11 %ID/g; in “in vivo” (Heart) it was 0.7 %ID/g; in “in vivo” (Kidney), 1.08 %ID/g; in “in vivo” (Liver), 1.1 %ID/g. The tissue uptake at 5 min in the data set “in vivo” (Lung) amounted to 1.13 %ID/g; in the data set “in vivo” (Muscle) it was 0.27 %ID/g; in the data set “in vivo” (Spleen), 1.55 %ID/g; in the data set “in vivo” (Testis), 0.25 %ID/g; in the data set “in vivo” (Tumor (T), 5 min, male fisher rats with implanted gliosarcoma) it was 0.61 %ID/g. In addition, the tissue uptake at 1 h in “in vivo” (Blood, 60 min, unfasted male fisher rats, average of 4 rats) amounted to 0.32 %ID/g; in “in vivo” (Bone, 60 min, unfasted male fisher rats, average of 4 rats), 0.38 %ID/g; in the data set “in vivo” (Brain (B)) it was 0.26 %ID/g; in the data set “in vivo” (Heart), 0.56 %ID/g; in “in vivo” (Kidney) it was 0.6 %ID/g; in “in vivo” (Liver), 1.7 %ID/g. Also, the tissue uptake at 1 h in the data set “in vivo” (Lung) was 0.64 %ID/g; in the data set “in vivo” (Muscle) it was 0.41 %ID/g; in “in vivo” (Spleen), 0.68 %ID/g; in “in vivo” (Testis), 0.28 %ID/g; in “in vivo” (Tumor (T), 60 min, male fisher rats with implanted gliosarcoma), 1.72 %ID/g. Also, the “T/B (tumor to brain ratio)” value was determined as 5.58 in the data set with implanted gliosarcoma (5 min, intravenous, male fisher rats with implanted gliosarcoma); 6.6 with implanted gliosarcoma (setting [4]); 6.61 in the data set with implanted gliosarcoma (rat, in vivo, iv). For the same molecule, the “Bone, Mean % Injected Dose/Gram” value turned out to be 0.52 % Injected Dose/Gram with implanted gliosarcoma (5 min, intravenous) and 0.38 % Injected Dose/Gram with implanted gliosarcoma (60 min, intravenous). Besides, in the data set with implanted gliosarcoma (setting [4]), the “Tumor (T), Mean % Injected Dose/Gram” value is reported as 1.72 % Injected Dose/Gram. In addition, the “stability to in vivo defluorination (bone uptake)” value with implanted gliosarcoma (rat, in vivo, iv) is reported as “Uptake by bone was essentially constant over the 60 minutes of exposure, indicating stability of the 2-cyclobutyl group to significant in vivo defluorination”. Also, the “tumor uptake / tumor to brain discrimination (in words)” value in the data set with implanted gliosarcoma (rat, in vivo, iv) is recorded as “preferentially associated with tumor tissue as early as 5 minutes post administration”. Further, the “Brain (B), Mean % Injected Dose/Gram” value is 0.11 % Injected Dose/Gram in the data set with implanted gliosarcoma (rat, in vivo, iv, 5 min) and 0.26 % Injected Dose/Gram in the data set on implanted gliosarcoma (rat, in vivo, iv, 1 h). In data set [3], the “binding to human astrocyte tumor cells (in words)” value is on record as “highly specific binding to human astrocyte tumor cells”.
